Tests used:
[1] = system: exonuclease deficient variant of the Pol6 polymerase; assay: Displacement assay of single, double, triple and quadruple nucleotide substrates (Example 3); type: biochemical
From the text: B. Assay protocol: The assay is a displacement assay using an exonuclease deficient variant of the Pol6 polymerase as described in Example 2, wherein polymerase activity is followed by fluorometrically monitoring the change in FRET between the Cy5 and BHQ labels as the polymerase incorporates the substrates in the DNA extension reaction.
Briefly, an assay solution containing the Pol6 polymerase, the 5′-Cy5-labelled displacement DNA template of SEQ ID NO: 124, and the 3′-BHQ-labelled quencher primer of SEQ ID NO: 124 in 75 mM potassium glutamate (“K-Glu”) is prepared in the absence of the substrate or Mg^2+ ion. A substrate solution is prepared containing either the multi-nucleotide compound to be assayed (i.e., “Y-Tag,” “W-Tag,” or “Q-Tag”), the non-tagged dT6P (“Hexa-PO4), or the tagged single nucleotide substrate, dA6P-dT30-C3 (”Full Tag“) of compound (3d). Also included in the substrate solution are the other three nucleotide-hexaphosphate (”dN6P″) substrates required for polymerase synthesis of a strand complementary to the DNA template (i.e., dA6P, dC6P, dG6P). This substrate solution is added to the polymerase solution. Assays are carried out for each of the test substrates at the following initial concentrations: 0.25 μM, 0.5 μM, 1.0 μM, 2.0 μM, 4.0 μM, and 8.0 μM. Additional K-Glu is added to bring the total K-Glu concentration in the mixture up to 300 mM. The polymerase reaction is then initiated by addition of MgCl2. Final concentrations in the assay reaction mixture are: 100 nM Pol6 enzyme, 50 nM Cy5 displacement DNA template, 40 μM each of other dN6P substrates, 300 mM K-Glu, 25 mM HEPES, 0.2 mM EDTA, 0.05% Triton X-100, 5 mM TCEP, 25 μg/mL BSA, 5 mM MgCl2, pH 7.5.

[2] = system: α-HL-Pol6 nanopore-polymerase conjugate; type: biochemical

Molecule: Cc1cn([C@H]2C[C@H](O)[C@@H](COP(=O)(O)OP(=O)(O)OP(=O)(O)OP(=O)(O)OP(=O)(O)OP(=O)(O)O)O2)c(=O)[nH]c1=O [dT6P]
- Rate ([1]; Initial Conc. Tag 0.25 μM): 0.57 Bases/sec
- Rate ([1]; Initial Conc. Tag 0.5 μM): 2.87 Bases/sec
- Rate ([1]; Initial Conc. Tag 1.0 μM): 3.48 Bases/sec
- Rate ([1]; Initial Conc. Tag 2.0 μM): 3.89 Bases/sec
- Rate ([1]; Initial Conc. Tag 4.0 μM): 4.48 Bases/sec
- Rate ([1]; Initial Conc. Tag 8.0 μM): 4.24 Bases/sec

Molecule: (dT6P)2-dT4-(N3CET)3-dT13-C3: two dT6P via doubler-linker on tag SEQ ID NO: 106 (DNA TTTTTTTTTTTTTTTTT; chemistry not fully specified)
- blocking current level [2]: 0.62+/−0.05

Molecule: (dA6P)2-dT5-(BHEB)-dT14-C3: two dA6P via doubler-linker on tag SEQ ID NO: 109 (DNA ttttttttttttttttttt; two dA6P via doubler linker; BHEB; C3; (5)..(6) bis-hydroxyethylbenzene residue between nucleotide residues 5 and 6; (19)..(19) T-propanol)
- blocking current level [2]: 0.88+/−0.03

Molecule: (dG6P)2-dT6-(Tmp)6-dT8-C3: two dG6P via doubler-linker on tag SEQ ID NO: 107 (DNA TTTTTTTTTTTTTT; two dG6P via doubler linker; Tmp; C3; (6)..(7) 6 thymidine methylphosphonate residues between nucleotide residues 6 and 7; (14)..(14) T-propanol)
- blocking current level [2]: 0.38+/−0.08

Molecule: (dC6P)2-dT20-C3: two dC6P via doubler-linker on tag SEQ ID NO: 105 (DNA tttttttttttttttttttt; two dC6P via doubler linker; C3; (20)..(20) T-propanol)
- blocking current level [2]: 0.76+/−0.04
